# Assay results published in patent US11505548B2, “Heterocyclic compounds and their use for treatment of helminthic infections and diseases” (Celgene Corporation, priority 2019, dated 2022).
# System: Onchocerca gutturosa Adult Male Worms
# Test: Onchocerciasis in vitro screening model, worm motility score
# Type: cell-based
# Settings: Onchocerca gutturosa; Table 1 O. gutturosa; levels A/B/C; motility or MTT readout not specified; read-out: O. gutturosa activity level (IC50 or MED)
row,IC50 [nM],SMILES
1,500 to 5000,"c1ccc(-c2nsc(Nc3ccc(N4CCNCC4)cn3)n2)nc1 [Cmpd 4, N-(5-(piperazin-1-yl)pyridin-2-yl)-3-(pyridin-2-yl)-1,2,4-thiadiazol-5-amine]"
2,500 to 5000,"c1ccc(-c2nsc(Nc3ccc(N4CCOCC4)cn3)n2)nc1 [Cmpd 5, N-(5-morpholino-pyridin-2-yl)-3-(pyridin-2-yl)-1,2,4-thiadiazol-5-amine]"
3,500 to 5000,"c1ccc(-c2nsc(Nc3ccc(OC4CCNCC4)cn3)n2)nc1 [Cmpd 10, N-(5-(piperidin-4-yloxy)pyridin-2-yl)-3-(pyridin-2-yl)-1,2,4-thiadiazol-5-amine]"
4,500 to 5000,"CN1CCC(Oc2ccc(Nc3nc(-c4ccccn4)ns3)nc2)CC1 [Compound 11, N-(5-(1-methyl-piperidin-4-yloxy)pyridin-2-yl)-3-(pyridin-2-yl)-1,2,4-thiadiazol-5-amine]"
5,500 to 5000,"Cc1ccnc(Nc2nc(-c3ncccc3C(F)(F)F)ns2)c1 [Compound 13, N-(4-methyl-pyridin-2-yl)-3-(3-(trifluoro-methyl)pyridin-2-yl)-1,2,4-thiadiazol-5-amine]"
6,< 200,"Cc1cccnc1Nc1nc(-c2ccc(C(=O)N(C)C)cn2)ns1 [Compound 17, N,N-dimethyl-6-(5-(3-methylpyridin-2-ylamino)-1,2,4-thiadiazol-3-yl)nicotinamide]"
7,200 to 500,"Cc1cccnc1Nc1nc(-c2ccc(OC3CCN(C)CC3)cn2)ns1 [Compound 18, 3-(5-(1-methyl-piperidin-4-yloxy)pyridin-2-yl)-N-(3-methylpyridin-2-yl)-1,2,4-thiadiazol-5-amine]"
8,< 200,"Cc1cccnc1Nc1nc(-c2ccc(OC3CCN(C)CC3)cn2)no1 [Compound 21, 3-(5-(1-methyl-piperidin-4-yloxy)pyridin-2-yl)-N-(3-methylpyridin-2-yl)-1,2,4-oxadiazol-5-amine]"
9,500 to 5000,"Cc1cccnc1Nc1nc(-c2cc(C(=O)N(C)C)ccn2)ns1 [Compound 22, N,N-dimethyl-2-(5-(3-methylpyridin-2-ylamino)-1,2,4-thiadiazol-3-yl)isonicotinamide]"
10,< 200,"COc1cccnc1Nc1nc(-c2cc(C)ccn2)ns1 [Compound 24, N-(3-methoxy-pyridin-2-yl)-3-(4-methyl-pyridin-2-yl)-1,2,4-thiadiazol-5-amine]"
11,< 200,"CCOc1ccc(Nc2nc(-c3ncccc3F)no2)nc1 [Compound 25, N-(5-ethoxy-pyridin-2-yl)-3-(3-fluoropyridin-2-yl)-1,2,4-oxadiazol-5-amine]"
12,500 to 5000,"Cc1cccnc1Nc1nc(-c2ccc(N3CCS(=O)(=O)CC3)cn2)ns1 [Compound 26, 4-(6-(5-((3-methylpyridin-2-yl)amino)-1,2,4-thiadiazol-3-yl)pyridin-3-yl)thio-morpholine 1,1-dioxide]"
13,< 200,"Fc1cccnc1-c1noc(Nc2cc(C(F)(F)F)ccn2)n1 [Compound 27, 3-(3-fluoropyridin-2-yl)-N-(4-(trifluoro-methyl)pyridin-2-yl)-1,2,4-oxadiazol-5-amine]"
14,< 200,"FC(F)(F)c1ccnc(Nc2nc(-c3ccccn3)no2)c1 [Compound 28, 3-(pyridin-2-yl)-N-(4-(trifluoro-methyl)pyridin-2-yl)-1,2,4-o xadiazol-5-amine]"
15,200 to 500,"CC(=O)Nc1ccc(-c2nsc(Nc3ncccc3C)n2)nc1 [Compound 29, N-(6-(5-(3-methylpyridin-2-ylamino)-1,2,4-thiadiazol-3-yl)pyridin-3-yl) acetamide]"
16,< 200,"CN1CCC(Oc2ccc(-c3nsc(Nc4ncccc4F)n3)nc2)CC1 [Compound 30, N-(3-fluoro-pyridin-2-yl)-3-(5-(1-methyl-piperidin-4-yloxy)pyridin-2-yl)-1,2,4-thiadiazol-5-amine]"
17,500 to 5000,"Cc1cccnc1Nc1nc(-c2ccc(S(=O)(=O)N(C)C)cn2)ns1 [Compound 31, N,N-dimethyl-6-(5-(3-methylpyridin-2-ylamino)-1,2,4-thiadiazol-3-yl)pyridine-3-sulfonamide]"
18,500 to 5000,"Cc1cccnc1-c1nnc(Nc2ccccn2)o1 [Compound 32, 5-(3-methyl-pyridin-2-yl)-N-(pyridin-2-yl)-1,3,4-oxadiazol-2-amine]"
19,< 200,"c1ccc(Nc2nc(-c3ccccn3)ns2)nc1 [Compound 33, N,3-di(pyridin-2-yl)-1,2,4-thiadiazol-5-amine]"
20,500 to 5000,"CN1CCC(Oc2ccc(-c3nsc(Nc4cc(C(F)(F)F)ccn4)n3)nc2)CC1 [Compound 34, 3-(5-(1-methyl-piperidin-4-yloxy)pyridin-2-yl)-N-(4-(trifluoro-methyl)pyridin-2-yl)-1,2,4-thiadiazol-5-amine]"

row,SMILES,IC50 [nM]
1,FC(F)(F)c1ccc(Nc2nc(-c3ccccn3)ns2)nc1 [Cmpd 1],< 200
2,"COc1ccc(Nc2nc(-c3ccccn3)ns2)nc1 [Cmpd 2, N-(5-methoxy-pyridin-2-yl)-3-(pyridin-2-yl)-1,2,4-thiadiazol-5-amine]",500 to 5000
3,"FC(F)(F)c1cncc(Nc2nc(-c3ccccn3)ns2)c1 [Cmpd 3, 3-(pyridin-2-yl)-N-(5-(trifluoromethyl)pyridin-3-yl)-1,2,4-thiadiazol-5-amine]",500 to 5000
4,"c1ccc(-c2nsc(Nc3ccc(N4CCCCC4)cn3)n2)nc1 [Cmpd 6, N-(5-(piperidin-1-yl)pyridin-2-yl)-3-(pyridin-2-yl)-1,2,4-thiadiazol-5-amine]",< 200
5,"c1ccc(-c2nsc(Nc3ccc(N4CCCC4)cn3)n2)nc1 [Cmpd 8, 3-(pyridin-2-yl)-N-(5-(pyrrolidin-1-yl)pyridin-2-yl)-1,2,4-thiadiazol-5-amine]",< 200
6,"c1ccc(-c2nsc(Nc3ccc(OC4CCOCC4)cn3)n2)nc1 [Cmpd 9, 3-(pyridin-2-yl)-N-(5-(tetrahydro-2H-pyran-4-yloxy)pyridin-2-yl)-1,2,4-thiadiazol-5-amine]",500 to 5000
7,"Cc1ccnc(-c2nsc(Nc3ncccc3F)n2)c1 [Compound 12, N-(3-fluoropyridin-2-yl)-3-(4-methylpyridin-2-yl)-1,2,4-thiadiazol-5-amine]",< 200
8,"Cc1ccnc(-c2noc(Nc3ncccc3F)n2)c1 [Compound 14, N-(3-fluoro-pyridin-2-yl)-3-(4-methylpyridin-2-yl)-1,2,4-oxadiazol-5-amine]",500 to 5000
9,"Cc1cccnc1Nc1nc(-c2ccc(OC3CCOCC3)cn2)ns1 [Compound 15, N-(3-methyl-pyridin-2-yl)-3-(5-(tetrahydro-2H-pyran-4-yloxy)pyridin-2-yl)-1,2,4-thiadiazol-5-amine]",< 200
10,"Cc1cccnc1Nc1nc(-c2ccc(OC3CCOCC3)cn2)no1 [Compound 16, N-(3-methyl-pyridin-2-yl)-3-(5-(tetrahydro-2H-pyran-4-yloxy)pyridin-2-yl)-1,2,4-oxadiazol-5-amine]",< 200
11,"Cc1cccnc1Nc1nc(-c2ccc(OC(C)C)cn2)ns1 [Compound 19, 3-(5-isopropoxy-pyridin-2-yl)-N-(3-methyl-pyridin-2-yl)-1,2,4-thiadiazol-5-amine]",< 200
12,"Cc1cccnc1Nc1nc(-c2ccc(OC(C)C)cn2)no1 [Compound 20, 3-(5-isopropoxy-pyridin-2-yl)-N-(3-methyl-pyridin-2-yl)-1,2,4-oxadiazol-5-amine]",< 200
13,"CNc1cccnc1Nc1nc(-c2cc(C)ccn2)ns1 [Compound 23, N3-methyl-N2-(3-(4-methylpyridin-2-yl)-1,2,4-thiadiazol-5-yl) pyridine-2,3-diamine]",< 200
